Measurements reported in patent US11535622B2, “Pyrrolo[1,2-b] pyridazine derivatives” (Gilead Sciences, Inc., priority 2018, dated 2022).
Where two headings read alike, the source gives them in different places.

How the values were obtained:
[1] = biological target: cloned hERG potassium channel encoded by the KCNH2 gene (Homo sapiens (Human), UniProt Q12809); assay: Automated hERG assay (FASTPatch, QPatch); format: cell-based; conditions: HEK293T cells, patch clamp, 0.3-30 uM
Procedure: The FASTPatch® Assay (Charles River) was used to examine the in vitro effects of various compounds on the cloned hERG potassium channel encoded by the KCNH2 gene and stably expressed in HEK293T cells. Vehicle, test and control article formulations were prepared by diluting DMSO stock solutions in HB-PS (HEPES-buffered physiological saline solution), and were delivered to cells via the QPatch robot pipetting system to a final concentration of 0.3% DMSO. […] The positive control, 50 nM Cisparide, was applied in the same manner. Cell membrane currents were recorded at room temperature with up to 48 parallel patch clamp amplifiers in the QPatch HT® or QPatch HTX® system, and only cells with validated whole-cell recordings (seal resistance ≥200 MO and leak current ≤25% channel current) were used. Onset and block of hERG current was measured using a stimulus voltage pattern consisting of a 500 ms prepulse to −40 mV, a 2-second activating pulse to +40 mV, followed by a 2-second test pulse to −40 mV. The pulse pattern was repeated continuously at 10-second intervals from a holding potential of −80 mV. TurboSol analysis for test compound solubility was performed for each concentration tested using a Nephelostar reader measuring light scatter from a 635 nm laser source. […]

[2] = tested on: human cryopreserved hepatocytes; assay: Metabolic stability in cryopreserved hepatocytes; format: in vitro ADME; conditions: 1 μM test compound
Procedure: Metabolic Stability in Cryopreserved Hepatocytes: Complete HT medium was prepared by the addition of 1 mL Torpedo Antibiotic Mix to 45 mL of InVitroGRO™ HT medium. Supplemented KHB medium consisted of KrebsHenseleit buffer with amikacin (84 μg/mL), calcium chloride (1 mM), gentamicin (84 μg/mL), HEPES (20 mM), heptanoic acid (4.2 μM) and sodium bicarbonate (28.5 mM) and the pH was adjusted to 7.4 at 37° C. using 1 M NaOH or 1 M HCl. The human cryopreserved hepatocytes were pooled from ten adult donors (Celsis, Lot: HBZ).
Vials containing cryopreserved hepatocytes were removed from liquid nitrogen and immediately immersed in a 37° C. water bath. The vials were shaken gently until the contents had thawed and were then immediately emptied into 48 mL of pre warmed Complete HT Medium in a 50 mL conical tube. Cells remaining in the vial were resuspended with 1.0 mL of pre warmed Complete HT Medium and added to the conical tube. The tube was capped and then gently inverted several times to resuspend the hepatocytes. The cell suspension was centrifuged at 50×g at room temperature for 5 minutes and the supernatant discarded. The cell pellet was loosened by gently swirling the centrifuge tube and Supplemented KHB medium was added to obtain a target density of 2×10^6 cells/mL. The total cell count and the proportion of viable cells were determined by Trypan Blue dye exclusion using a hemocytometer.
For incubations, aliquots of hepatocyte suspension (250 μL containing 500,000 cells) were added to 250 μL of 2 μM test compound or metabolic stability controls in supplemented KHB in duplicate wells in a 24-well plate. Final concentration in the incubations were 1×10^6 cells/mL and 1 μM test compound. 7-Hydroxycoumarin and testosterone, compounds known to be efficiently metabolized by hepatocytes, were used as positive controls in parallel incubations ([…] final concentration of each compound). The incubation was carried out with gentle shaking at 37° C. under a humid atmosphere of 95% air/5% CO2 (v/v). Aliquots (50 μL) were removed after 0, 1, 3, and 6 hours and added to 100 μL IS/Q quenching solution. After termination, 150 μL of water was added, the plates were centrifuged at 3000×g for 10 min, and aliquots of the supernatant were analyzed on a Micromass Quattro Premier mass spectrometer coupled to an Agilent 1200 Series HPLC system with a Leap Technologies HTC PAL autosampler as described below.
Liquid Chromatography-Mass Spectrometry: Quantification of test compound and metabolic stability controls was performed by analyte/internal standard peak area ratios (PAR) measured on a Micromass Quattro Premier XL tandem triple quadrupole mass spectrometer coupled to an Agilent 1200 Series HPLC system with a Leap Technologies HTC PAL autosampler. The column used was a Phenomenex® MercuryMS™, Synergi Max-RP (100 Å pore size, 2.5 μm particle size, 20×2.0 mm). Mobile Phase A consisted of 0.2% (v/v) formic acid in 99% water/1% acetonitrile (v/v). Mobile Phase B consisted of 0.2% (v/v) formic acid in 5% water/95% acetonitrile (v/v). Elution was achieved by the following series of linear gradients: initial conditions of 0% B, holding for 30 s, then increasing to 100% B over 90 s, and then returning to the initial conditions over 1 s. The system was allowed to re-equilibrate for a minimum of 60 s between injections. The sample injection volume was 10 μL.

IRAK4 enzyme = IRAK4 enzyme (Homo sapiens (Human), UniProt Q9NWZ3); assay: IRAK4 biochemical assay (HTRF/TR-FRET); conditions: 500 μM ATP
IRAK4 enzyme, sequence (Q9NWZ3 whole entry): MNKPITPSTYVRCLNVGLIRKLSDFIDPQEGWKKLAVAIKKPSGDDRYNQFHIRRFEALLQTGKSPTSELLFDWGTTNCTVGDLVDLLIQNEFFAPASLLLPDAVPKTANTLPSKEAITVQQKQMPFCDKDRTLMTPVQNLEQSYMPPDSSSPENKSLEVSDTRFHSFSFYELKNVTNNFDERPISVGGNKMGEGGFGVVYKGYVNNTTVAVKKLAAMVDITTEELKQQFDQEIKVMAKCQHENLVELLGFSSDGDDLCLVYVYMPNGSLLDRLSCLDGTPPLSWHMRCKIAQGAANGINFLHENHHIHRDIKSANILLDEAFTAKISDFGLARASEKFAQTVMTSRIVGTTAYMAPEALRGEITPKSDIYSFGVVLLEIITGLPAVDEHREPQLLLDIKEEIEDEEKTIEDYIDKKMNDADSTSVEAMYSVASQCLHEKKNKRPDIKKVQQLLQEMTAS
Procedure: IRAK4 enzyme (Carna Biosciences, Chuo-ku, Kobe, Japan) activity was measured by detecting phosphorylated peptide substrate formation using an antibody against the phosphorylated peptide substrate. This is a time-resolved fluorescence resonance energy transfer (TR-FRET) immunoassay, based on the STK1 KnEASE Assay (Cisbio, Bedford, Mass.). […] Compounds diluted in DMSO were spotted into 384 well plates using a Labcyte® Echo 550 Liquid Handling System prior to addition of IRAK4 enzyme and peptide substrate. Reaction solutions were delivered using a Multi-Flo (Bio-Tek Instruments). The enzyme and peptide solution was incubated with compound for 15 minutes at room temp before the reaction was initiated by the addition of ATP.

TNFα = assay: IRAK4 monocyte TNFα cell based assay (LPS stimulated); set-up: species or system human
Procedure: IRAK4 Monocyte TNFα Cell Based Assay Procedure:
The cell suspension was then plated at a density of 5,000 cells/well onto black 384 well Greiner clear bottom plates. Plates were pre-spotted with test compounds and serially diluted in DMSO where 40 nL/well were delivered using the Echo 550 acoustic liquid dispenser (Labcyte®) for a final DMSO concentration of 0.1%. Plated cells were treated with compound for 1 hour at 37° C. Cells were then stimulated with 50 pg/ml of LPS (Sigma) excluding outside columns of plate used for unstimulated cell control wells. Cells were incubated for an additional 4 hours at 37° C. Cells were then spun out of the media and 5 μl of sample were taken and analyzed for total TNFα content using the TR-FRET Human TNFα detection system (CisBio). This system utilizes two labeled antibodies (cryptate and XL665) that bind to two different epitopes of the TNFα molecule and produce FRET signal proportional to the concentration of TNFα in the sample. Detection antibodies are mixed 50:50 and 5 μL were dispensed into each well. Plates were covered with clear seals and incubated at room temp overnight. […] Percent of control was calculated as follows: % Control=100×(RatioSample−Ratio0% stimulation)/(Ratio100% Stimulation−Ratio0% Stimulation) where unstimulated cells (0% stimulation) were the negative control and stimulated cells (100% stimulation) were used as the positive control.

[3] = pKa determination (pKa PRO Analyzer); format: physicochemical
Procedure: Sample Preparation: A stock solution of test compound in dimethyl sulfoxide (DMSO) having a final concentration of 10 mM was prepared and used in all experiments. The DMSO stocks were thawed, spun, and sonicated in a 40° C. water bath to facilitate dissolution.
The compounds were then transferred into 24 consecutive wells of a 96 well PCR plate for analysis with the aqueous method. […] The compounds were transferred into 24 consecutive wells of a 96 well plate for analysis using the co-solvent method.
Analysis: All data was obtained using a pKa PRO Analyzer (AATI, Ames, Iowa). For the aqueous method, an electrophoretic separation is performed in parallel across 24 different pH values, providing a direct measure of overall compound charge vs. pH. The compounds are detected by UV at 228 nm. The average pH spacing between buffer points is 0.4 pH units covering a typical pH range of 1.7-11.2.
The average pH spacing between buffer points is 0.4 pH units covering a pH range of 1.7-11.2. Four consecutive CE runs are performed for each compound starting with 60% co-solvent buffers and decreasing to 30% co-solvent buffers.
Norfloxacin is used as a daily performance-indicating standard.
Calculation of Results: The total number of pKa values is predicted by relating mobility and compound molecular weight using pKa Estimator® software (AATI, Ames, Iowa).

[4] = human monocytes, LPS 50 pg/ml, TNFα by TR-FRET, read-out: EC50 TNF

cloned hERG potassium channel encoded by the KCNH2 gene, sequence (Q12809 whole entry): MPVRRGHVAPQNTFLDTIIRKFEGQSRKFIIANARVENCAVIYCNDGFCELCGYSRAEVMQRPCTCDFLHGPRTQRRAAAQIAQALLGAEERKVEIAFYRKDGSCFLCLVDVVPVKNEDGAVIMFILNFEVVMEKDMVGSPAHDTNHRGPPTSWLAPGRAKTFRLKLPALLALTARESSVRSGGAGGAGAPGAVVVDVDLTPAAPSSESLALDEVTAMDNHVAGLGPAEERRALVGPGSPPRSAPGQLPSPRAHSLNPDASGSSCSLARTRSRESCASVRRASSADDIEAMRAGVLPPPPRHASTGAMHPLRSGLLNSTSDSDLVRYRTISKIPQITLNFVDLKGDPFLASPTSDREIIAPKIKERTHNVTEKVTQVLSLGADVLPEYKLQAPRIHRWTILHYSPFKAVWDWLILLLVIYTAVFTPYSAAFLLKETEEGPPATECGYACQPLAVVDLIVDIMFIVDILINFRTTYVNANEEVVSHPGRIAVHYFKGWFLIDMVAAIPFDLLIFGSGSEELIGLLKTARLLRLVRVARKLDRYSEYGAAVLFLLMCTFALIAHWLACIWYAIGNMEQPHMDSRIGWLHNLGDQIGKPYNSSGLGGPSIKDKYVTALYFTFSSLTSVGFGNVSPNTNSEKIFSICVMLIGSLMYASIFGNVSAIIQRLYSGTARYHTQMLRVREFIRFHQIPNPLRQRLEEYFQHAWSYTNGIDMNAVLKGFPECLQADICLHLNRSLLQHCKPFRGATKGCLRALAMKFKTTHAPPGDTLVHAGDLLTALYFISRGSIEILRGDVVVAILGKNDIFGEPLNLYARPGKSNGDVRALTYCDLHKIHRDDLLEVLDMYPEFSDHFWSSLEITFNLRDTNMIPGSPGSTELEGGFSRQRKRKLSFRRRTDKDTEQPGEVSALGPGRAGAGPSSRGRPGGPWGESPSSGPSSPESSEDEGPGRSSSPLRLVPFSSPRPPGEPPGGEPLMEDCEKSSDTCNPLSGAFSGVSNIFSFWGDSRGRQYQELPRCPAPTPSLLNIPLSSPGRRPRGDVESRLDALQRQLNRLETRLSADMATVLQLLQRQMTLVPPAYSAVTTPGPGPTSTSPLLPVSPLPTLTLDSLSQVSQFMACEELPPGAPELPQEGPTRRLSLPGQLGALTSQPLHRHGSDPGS

Structure (SMILES) | Human Hep. Stability [2] | IC50 (IRAK4 enzyme) | EC50 (TNFα; [4]) | EC50 (TNFα; protein adjusted, competitive equilibrium dialysis, human plasma versus CCM with 10% FBS, read-out: Protein Adj. EC50 TNF) | pKa [3] | IC50 [1]
CC(C)Nc1cc(-c2ccc3cc(C#N)cnn23)ncc1C(=O)NC[C@@H](F)C(C)(C)O [A, reference compound] | 3.33 mL/min/kg | < 1 nM | 23 nM | 504 nM | 6.1 | 3900 nM
C[C@H](C#N)Nc1cc(-c2ccc3cc(C#N)cnn23)ncc1C(=O)NC[C@@H](F)C(C)(C)O [Compound 3, 4-(((R)-1-cyanoethyl)amino)-6-(3-cyanopyrrolo[1,2-b]pyridazin-7-yl)-N-((R)-2-fluoro-3-hydroxy-3-methylbutyl)nicotinamide] | 1.3 mL/min/kg |  |  |  | 4.9 | 
CC[C@H](C#N)Nc1cc(-c2ccc3cc(C#N)cnn23)ncc1C(=O)NC[C@@H](F)C(C)(C)O [Compound 5, 4-(((R)-1-cyanopropyl)amino)-6-(3-cyanopyrrolo[1,2-b]pyridazin-7-yl)-N-((R)-2-fluoro-3-hydroxy-3-methylbutyl)nicotinamide] |  | 1 nM | 60 nM |  |  | 
CC[C@@H](C#N)Nc1cc(-c2ccc3cc(C#N)cnn23)ncc1C(=O)NC[C@@H](F)C(C)(C)O [Compound 6, 4-(((S)-1-cyanopropyl)amino)-6-(3-cyanopyrrolo[1,2-b]pyridazin-7-yl)-N-((R)-2-fluoro-3-hydroxy-3-methylbutyl)nicotinamide] |  | 5 nM | 267 nM |  |  | 
CC(C)(C#N)Nc1cc(-c2ccc3cc(C#N)cnn23)ncc1C(=O)NC[C@@H](F)C(C)(C)O [Compound 9, (R)-4-((2-cyanopropan-2-yl)amino)-6-(3-cyanopyrrolo[1,2-b]pyridazin-7-yl)-N-(2-fluoro-3-hydroxy-3-methylbutyl)nicotinamide] | 4.33 mL/min/kg | < 1 nM | 49 nM |  | 4.8 | 
CC(C)(O)[C@H](F)CNC(=O)c1cnc(-c2ccc3cc(C#N)cnn23)cc1NC1(C#N)CC1 [Compound 10, (R)-4-((1-cyanocyclopropyl)amino)-6-(3-cyanopyrrolo[1,2-b]pyridazin-7-yl)-N-(2-fluoro-3-hydroxy-3-methylbutyl)nicotinamide] | 3.67 mL/min/kg | < 1 nM | 35 nM |  |  | 

Further lines, with some results ahead:

Human Hep. Stability [2] | IC50 (IRAK4 enzyme) | EC50 (TNFα; [4]) | EC50 (TNFα; protein adjusted, competitive equilibrium dialysis, human plasma versus CCM with 10% FBS, read-out: Protein Adj. EC50 TNF) | pKa [3] | Structure (SMILES) | IC50 [1]
0.83 mL/min/kg |  |  |  | 6.6 | CNc1cc(-c2ccc3cc(C#N)cnn23)ncc1C(=O)NC[C@@H](F)C(C)(C)O [Compound 1, (R)-6-(3-cyanopyrrolo[1,2-b]pyridazin-7-yl)-N-(2-fluoro-3-hydroxy-3-methylbutyl)-4-(methylamino)nicotinamide] | 
2.17 mL/min/kg |  |  |  | 5.1 | CC(C)(O)[C@H](F)CNC(=O)c1cnc(-c2ccc3cc(C#N)cnn23)cc1NCC#N [Compound 2, (R)-4-((cyanomethyl)amino)-6-(3-cyanopyrrolo[1,2-b]pyridazin-7-yl)-N-(2-fluoro-3-hydroxy-3-methylbutyl)nicotinamide] | 
 |  | 164 nM |  |  | CC(C)(O)[C@H](F)CNC(=O)c1cnc(-c2ccc3cc(C#N)cnn23)cc1NCCC#N [Compound 7, (R)-4-((2-cyanoethyl)amino)-6-(3-cyanopyrrolo[1,2-b]pyridazin-7-yl)-N-(2-fluoro-3-hydroxy-3-methylbutyl)nicotinamide] | 
2.33 mL/min/kg | < 1 nM | 33 nM |  | 5.9 | CC(C)(O)[C@H](F)CNC(=O)c1cnc(-c2ccc3cc(C#N)cnn23)cc1NCCCC#N [Compound 8, (R)-4-((3-cyanopropyl)amino)-6-(3-cyanopyrrolo[1,2-b]pyridazin-7-yl)-N-(2-fluoro-3-hydroxy-3-methylbutyl)nicotinamide] | 3500 nM
